Assay results taken from article PMC12777568 (Antimicrobial Agents and Chemotherapy, 2025).

Columns and labels:
[1] = parameters: method as in earlier work; settings: cited from earlier work
[2] = BIC plasma pharmacokinetics, Phase 1 open-label single-dose DDI study GS-US-380-3909 (B/F/TAF 50/200/25 mg with antacid or mineral supplements); type: in vivo, human; settings: for Cmax, reference GLSM: BIC alone (N = 14); for half-life / Vd/F / AUC(0-inf): both sexes, human, plasma, oral; for half-life: BIC T1/2, median (Q1, Q3); for Vd/F: BIC VZ/F; for Vd/F / AUC(0-inf): mean (%CV); for AUC(0-inf): BIC plasma AUCinf
Experimental: Eligible participants were adult (18–45 years) males and non-pregnant, non-lactating females in good general health at a screening evaluation performed no more than 28 days before the first study dose. […] Full eligibility criteria are available in the supplement. All prescription and over-the-counter medications except vitamins, acetaminophen, ibuprofen, and hormonal contraceptives were not permitted during study participation. Three dosing cohorts were evaluated (Table 1). […] Vitamins and/or other supplements were not permitted on the dosing day. […] Participants received maximum-strength antacid oral suspension (four teaspoons; 20 mL; 1,600 mg aluminum hydroxide/1,600 mg magnesium hydroxide/160 mg simethicone; referred to as “aluminum/magnesium-containing antacid”) on Day 9, calcium carbonate (1,200 mg; 2 × 600 mg tablets) on Day 17, and ferrous fumarate (1 × 324 mg tablet) on Day 25. […] All samples were analyzed within the timeframe determined using frozen stability storage data. […] PK parameters were estimated using Phoenix WinNonlin software (Version 6.4, Pharsight Corporation, Princeton, NJ, USA) using standard noncompartmental analysis methods. […] The estimated 90% CIs were compared to a prespecified lack of DDI boundary of 70%–143%. […] A minimum of 12 evaluable participants in each cohort was calculated to be needed to reject the null hypothesis (i.e., the 90% CI for the GLSM ratio for each PK parameter was outside the prespecified boundary) with ≥90% power.

[3] = Cohort 1 fasted, B/F/TAF + calcium carbonate simultaneous, N = 14
[4] = Cohort 1 fasted, B/F/TAF alone, N = 14
[5] = Cohort 1 fasted, simultaneous aluminum/magnesium-containing antacid
[6] = Cohort 1 fasted, simultaneous calcium carbonate
[7] = Cohort 1 fasted, simultaneous ferrous fumarate
[8] = Cohort 2 fasted, B/F/TAF 2 hours after aluminum/magnesium-containing antacid
[9] = Cohort 2 fasted, B/F/TAF 2 hours after aluminum/magnesium-containing antacid, N = 13
[10] = Cohort 2 fasted, B/F/TAF 2 hours before aluminum/magnesium-containing antacid, N = 13
[11] = Cohort 2 fasted, B/F/TAF alone, N = 14
[12] = Cohort 3, B/F/TAF alone (fasted), N = 14
[13] = Cohort 3 fed, B/F/TAF + aluminum/magnesium-containing antacid simultaneous, N = 14
[14] = Cohort 3 fed, simultaneous aluminum/magnesium-containing antacid
[15] = Cohort 1 fasted, B/F/TAF + aluminum/magnesium-containing antacid simultaneous, N = 14
[16] = Cohort 1 fasted, B/F/TAF + ferrous fumarate simultaneous, N = 14
[17] = Cohort 3 fed, B/F/TAF + ferrous fumarate simultaneous, N = 14

Q: With `O=C(NCc1c(F)cc(F)cc1F)c1cn2c(c(O)c1=O)C(=O)N1[C@H]3CC[C@H](C3)O[C@@H]1C2` [BIC, bictegravir] as the molecule, how does the “half-life for BIC (median T1/2)” value [1] read?
A: The value was ~ 17 hours.

Q: And the “BIC T1/2, median (Q1, Q3)” value [2, 3]?
A: Its value is 21.0 (17.6, 25.0) h.

Q: And the “BIC plasma Tmax, median (Q1, Q3)” value [2, 3]?
A: Its value is 1.8 (1.5, 4.0) h.

Q: What about the “BIC plasma AUCinf, mean (%CV)” value [2, 4] of the same molecule?
A: The value was 121.9 (24.4) µg*h/mL.

Q: And the “Cmax, reference GLSM” value ([2]; Cohort 1 fasted)?
A: Its value is 5540 ng/mL.

Q: And the “Delay of median Tmax compared with B/F/TAF alone” value [2, 5]?
A: Its value is 1 h.

Q: What about the “Increase in mean BIC CL/F compared with B/F/TAF alone” value [2, 5] of the same molecule?
A: Its value is 404%.

Q: And the “Increase in mean BIC Vz/F compared with B/F/TAF alone” value [2, 5]?
A: The value was 421%.

Q: What about the “Reduction in BIC AUCinf compared with B/F/TAF alone” value (“Reduction in BIC AUCinf” below) [2, 5] of the same molecule?
A: The value was 79%.

Q: And the “Reduction in BIC C24 compared with B/F/TAF alone” value (shortened to “Reduction in BIC C24”) [2, 5]?
A: The value was 78%.

Q: What about the “Reduction in BIC Cmax compared with B/F/TAF alone” value (from here on “Reduction in BIC Cmax”) [2, 5] of the same molecule?
A: Its value is 80%.

Q: And the “Increase in mean BIC CL/F compared with B/F/TAF alone” value [2, 6]?
A: The value was 56%.

Q: What about the “Increase in mean BIC Vz/F compared with B/F/TAF alone” value [2, 6] of the same molecule?
A: Its value is 84%.

Q: What about the “Reduction in BIC AUCinf” value [2, 6] of the same molecule?
A: The value was 33%.

Q: What about the “Reduction in BIC C24” value [2, 6] of the same molecule?
A: Its value is 35%.

Q: What about the “Reduction in BIC Cmax” value [2, 6] of the same molecule?
A: Its value is 42%.

Q: What about the “Delay of median Tmax compared with B/F/TAF alone” value [2, 7] of the same molecule?
A: The value was 1.5 h.

Q: And the “Increase in mean BIC CL/F compared with B/F/TAF alone” value [2, 7]?
A: The value was 174%.

Q: And the “Increase in mean BIC Vz/F compared with B/F/TAF alone” value [2, 7]?
A: Its value is 216%.

Q: And the “Reduction in BIC AUCinf” value [2, 7]?
A: Its value is 63%.

Q: What about the “Reduction in BIC C24” value [2, 7] of the same molecule?
A: The value was 63%.

Q: What about the “Reduction in BIC Cmax” value [2, 7] of the same molecule?
A: Its value is 71%.

Q: And the “Cmax, test GLSM” value ([2]; Cohort 2 fasted, B/F/TAF 2 h before aluminum/magnesium-containing antacid, N = 14)?
A: The value was 5460 ng/mL.

Q: And the “Decrease in BIC AUCinf compared with B/F/TAF alone” value [2, 8]?
A: The value was 52%.

Q: And the “Decrease in BIC C24 compared with B/F/TAF alone” value [2, 8]?
A: Its value is 53%.

Q: What about the “Decrease in BIC Cmax compared with B/F/TAF alone” value [2, 8] of the same molecule?
A: Its value is 59%.

Q: What about the “Delay of median Tmax compared with B/F/TAF alone” value [2, 8] of the same molecule?
A: Its value is 1 h.

Q: And the “Increase in mean BIC CL/F compared with B/F/TAF alone” value [2, 8]?
A: Its value is 124%.

Q: What about the “Increase in mean BIC VZ/F compared with B/F/TAF alone” value [2, 8] of the same molecule?
A: Its value is 180%.

Q: What about the “BIC plasma Tmax, median (Q1, Q3)” value [2, 9] of the same molecule?
A: The value was 2.0 (1.5, 3.0) h.

Q: What about the “Delay of median Tmax compared with B/F/TAF alone” value ([2]; Cohort 2 fasted, B/F/TAF 2 hours before aluminum/magnesium-containing antacid) of the same molecule?
A: The value was 1.5 h.

Q: And the “BIC plasma Tmax, median (Q1, Q3)” value [2, 10]?
A: Its value is 1.5 (1.5, 2.0) h.

Q: What about the “BIC T1/2, median (Q1, Q3)” value [2, 11] of the same molecule?
A: The value was 20.8 (16.5, 22.8) h.

Q: What about the “BIC plasma Tmax, median (Q1, Q3)” value [2, 11] of the same molecule?
A: Its value is 3.0 (2.0, 3.0) h.

Q: And the “BIC T1/2, median (Q1, Q3)” value [2, 12]?
A: Its value is 18.0 (17.5, 19.9) h.

Q: And the “BIC plasma Tmax, median (Q1, Q3)” value [2, 12]?
A: The value was 1.5 (1.5, 2.0) h.

Q: And the “Cmax, reference GLSM” value ([2]; Cohort 3, fasted)?
A: Its value is 4540 ng/mL.

Q: What about the “BIC T1/2, median (Q1, Q3)” value [2, 13] of the same molecule?
A: Its value is 17.9 (16.9, 20.2) h.

Q: What about the “Decrease in BIC AUCinf compared with B/F/TAF alone under fasted conditions” value [2, 14] of the same molecule?
A: Its value is 47%.

Q: And the “Decrease in BIC C24 compared with B/F/TAF alone under fasted conditions” value [2, 14]?
A: Its value is 44%.

Q: What about the “Decrease in BIC Cmax compared with B/F/TAF alone under fasted conditions” value [2, 14] of the same molecule?
A: Its value is 49%.

Q: And the “Delay of median Tmax compared with B/F/TAF alone under fasted conditions” value [2, 14]?
A: The value was 2 h.

Q: What about the “Increase in mean BIC CL/F compared with B/F/TAF alone under fasted conditions” value [2, 14] of the same molecule?
A: The value was 89%.

Q: And the “Increase in mean BIC Vz/F compared with B/F/TAF alone under fasted conditions” value [2, 14]?
A: Its value is 89%.

Q: And the “Delay of median Tmax compared with B/F/TAF alone under fasted conditions” value ([2]; Cohort 3 fed, simultaneous calcium carbonate)?
A: The value was 2 h.

Q: What about the “Delay of median Tmax compared with B/F/TAF alone under fasted conditions” value ([2]; Cohort 3 fed, simultaneous ferrous fumarate) of the same molecule?
A: The value was 2.5 h.

Q: And the half-life [2, 15]?
A: The half-life was 20.2 h.

Q: What about the half-life [2, 16] of the same molecule?
A: Its half-life is 21.9 h.

Q: What about the half-life [2, 4] of the same molecule?
A: The half-life was 18.9 h.

Q: And the half-life [2, 9]?
A: Its half-life is 24.2 h.

Q: What about the half-life [2, 10] of the same molecule?
A: Its half-life is 21.8 h.

Q: And the half-life ([2]; Cohort 3 fed, B/F/TAF + calcium carbonate simultaneous, N = 14)?
A: The half-life was 18.9 h.

Q: What about the half-life [2, 17] of the same molecule?
A: Its half-life is 19.3 h.

Q: And the Vd/F [2, 15]?
A: Its Vd/F is 61.4 L.

Q: What about the Vd/F [2, 3] of the same molecule?
A: The Vd/F was 21.7 L.

Q: What about the Vd/F [2, 16] of the same molecule?
A: The Vd/F was 37.3 L.

Q: And the Vd/F [2, 4]?
A: Its Vd/F is 11.8 L.

Q: What about the Vd/F [2, 9] of the same molecule?
A: Its Vd/F is 31.2 L.

Q: And the Vd/F [2, 10]?
A: Its Vd/F is 14.4 L.

Q: What about the Vd/F [2, 11] of the same molecule?
A: Its Vd/F is 11.2 L.

Q: And the Vd/F [2, 13]?
A: Its Vd/F is 29.1 L.

Q: And the Vd/F [2, 17]?
A: Its Vd/F is 19.3 L.

Q: And the AUC(0-inf) [2, 15]?
A: Its AUC(0-inf) is 28000 ng·h/mL.

Q: And the AUC(0-inf) [2, 3]?
A: Its AUC(0-inf) is 85000 ng·h/mL.

Q: And the AUC(0-inf) [2, 16]?
A: Its AUC(0-inf) is 46100 ng·h/mL.

Q: And the AUC(0-inf) [2, 9]?
A: The AUC(0-inf) was 67700 ng·h/mL.

Q: And the AUC(0-inf) [2, 10]?
A: Its AUC(0-inf) is 116000 ng·h/mL.
